Measurements published in patent publication US10597388B2, “Pyridazinone herbicides” (FMC CORPORATION, priority 2014, dated 2020).

Key:
Assay in all cases: Test C greenhouse herbicide test, pre- and postemergence
Assay type in all cases: in vivo
[1] = system: barnyardgrass (Echinochloa crus-galli)
Outline: (§1)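 Seeds sown in loam–sand blend treated preemergence; plants in peat-based medium sprayed postemergence at 2–18 cm (1- to 4-leaf stage); chemicals in non-phytotoxic solvent with surfactant. Greenhouse 13–15 d, then visual rating versus controls on 0–100 scale (0 no effect, 100 complete control).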

[2] = system: blackgrass (Alopecurus myosuroides)
Outline: as §1

corn (Zea mays) = system: corn (Zea mays)
Outline: as §1

[3] = system: crabgrass, large (large crabgrass, Digitaria sanguinalis)
Outline: as §1

[4] = system: foxtail, giant (giant foxtail, Setaria faberii)
Outline: as §1

[5] = system: galium (catchweed bedstraw, Galium aparine)
Outline: as §1

[6] = system: lambsquarters (Chenopodium album)
Outline: as §1

[7] = system: morningglory (Ipomoea coccinea)
Outline: as §1

[8] = system: oilseed rape (Brassica napus)
Outline: as §1

[9] = system: pigweed (Amaranthus retroflexus)
Outline: as §1

[10] = system: ragweed (common ragweed, Ambrosia elatior)
Outline: as §1

[11] = system: ryegrass, Italian (Italian ryegrass, Lolium multiflorum)
Outline: as §1

[12] = system: velvetleaf (Abutilon theophrasti)
Outline: as §1

[13] = system: waterhemp (common waterhemp, Amaranthus rudis)
Outline: as §1

[14] = system: wheat (winter wheat, Triticum aestivum)
Outline: as §1

[15] = Postemergence, 31 g ai/ha, 0 to 100 scale (0 no effect, 100 complete control)
[16] = Postemergence, 125 g ai/ha, scale 0 to 100, 0 is no effect, 100 is complete control
[17] = Postemergence, 250 g ai/ha, scale 0 to 100, 0 no effect, 100 complete control, 13 to 15 d
[18] = Preemergence, 31 g ai/ha, scale 0 to 100, 0 is no effect, 100 is complete control
[19] = Preemergence, 62 g ai/ha, scale 0 to 100, 0 is no effect, 100 is complete control
[20] = Preemergence, 125 g ai/ha, scale 0 to 100, 0 is no effect, 100 is complete control
[21] = Preemergence, 250 g ai/ha, scale 0 to 100, 0 no effect, 100 complete control
[22] = postemergence, 62 g ai/ha, scale 0 to 100, 0 no effect, 100 complete control

Cc1sc2ccccc2c1-c1c(O)c(Cl)nn(C)c1=O [Compound 89]
75: Crabgrass, Large plant response rating [3, 21] | Foxtail, Giant plant response rating [4, 21] | Pigweed plant response rating [9, 22] | Plant response rating, Ryegrass, Italian [11, 16] | Ryegrass, Italian plant response rating [11, 22] | Plant response rating, Velvetleaf [12, 16] | Velvetleaf plant response rating [12, 22] | Plant response rating, Waterhemp [13, 18] | Waterhemp plant response rating [13, 21]
90: Lambsquarters plant response rating [6, 21] | Lambsquarters plant response rating [6, 22] | Morningglory plant response rating [7, 21] | Oilseed Rape plant response rating [8, 21] | Plant response rating, Ragweed [10, 16] | Ragweed plant response rating [10, 21] | Ragweed plant response rating [10, 22] | Plant response rating, Ryegrass, Italian [11, 20] | Ryegrass, Italian plant response rating [11, 21] | Plant response rating, Velvetleaf [12, 20]
5: Barnyardgrass plant response rating [1, 15] | Plant response rating, Barnyardgrass [1, 18] | Plant response rating, Blackgrass [2, 17] | Plant response rating, Blackgrass [2, 18] | Corn plant response rating (corn (Zea mays); [15]) | Plant response rating, Corn (corn (Zea mays); [17]) | Corn plant response rating (corn (Zea mays); [22]) | Plant response rating, Crabgrass, Large [3, 16] | Crabgrass, Large plant response rating [3, 22]
25: Plant response rating, Barnyardgrass [1, 20] | Plant response rating, Crabgrass, Large [3, 20]
15: Plant response rating, Barnyardgrass [1, 19] | Barnyardgrass plant response rating [1, 22]
45: Blackgrass plant response rating [2, 21]
20: Plant response rating, Barnyardgrass [1, 16] | Plant response rating, Crabgrass, Large [3, 18] | Plant response rating, Foxtail, Giant [4, 16] | Plant response rating, Ryegrass, Italian [11, 18]
70: Plant response rating, Velvetleaf [12, 18]
65: Barnyardgrass plant response rating [1, 21] | Plant response rating, Foxtail, Giant [4, 20]
0: Blackgrass plant response rating [2, 15] | Plant response rating, Blackgrass [2, 16] | Blackgrass plant response rating [2, 22] | Plant response rating, Corn (corn (Zea mays); [18]) | Plant response rating, Corn (corn (Zea mays); [19]) | Plant response rating, Corn (corn (Zea mays); [20]) | Corn plant response rating (corn (Zea mays); [21]) | Plant response rating, Crabgrass, Large [3, 19] | Plant response rating, Oilseed Rape [8, 16] | Plant response rating, Oilseed Rape [8, 17] | Plant response rating, Oilseed Rape [8, 18] | Plant response rating, Oilseed Rape [8, 19] | Oilseed Rape plant response rating [8, 22] | Plant response rating, Wheat [14, 16] | Plant response rating, Wheat [14, 17] | Plant response rating, Wheat [14, 18] | Plant response rating, Wheat [14, 19] | Plant response rating, Wheat [14, 20] | Wheat plant response rating [14, 21] | Wheat plant response rating [14, 22]
50: Plant response rating, Waterhemp [13, 16] | Plant response rating, Waterhemp [13, 17] | Plant response rating, Waterhemp [13, 19]
10: Plant response rating, Corn (corn (Zea mays); [16]) | Plant response rating, Crabgrass, Large [3, 17] | Plant response rating, Foxtail, Giant [4, 18] | Foxtail, Giant plant response rating [4, 22]
80: Plant response rating, Morningglory [7, 18] | Plant response rating, Pigweed [9, 16] | Plant response rating, Ragweed [10, 19] | Plant response rating, Ragweed [10, 20] | Plant response rating, Ryegrass, Italian [11, 17] | Plant response rating, Ryegrass, Italian [11, 19] | Plant response rating, Velvetleaf [12, 17] | Plant response rating, Velvetleaf [12, 19]
98: Plant response rating, Galium [5, 19] | Plant response rating, Galium [5, 20] | Galium plant response rating [5, 21] | Plant response rating, Lambsquarters [6, 20] | Plant response rating, Morningglory [7, 16] | Plant response rating, Morningglory [7, 17] | Plant response rating, Ragweed [10, 17]
85: Plant response rating, Lambsquarters [6, 19] | Plant response rating, Morningglory [7, 19] | Plant response rating, Morningglory [7, 20] | Velvetleaf plant response rating [12, 21]
100: Plant response rating, Lambsquarters [6, 16] | Plant response rating, Lambsquarters [6, 17] | Plant response rating, Pigweed [9, 19] | Plant response rating, Pigweed [9, 20] | Pigweed plant response rating [9, 21]
60: Plant response rating, Foxtail, Giant [4, 19]
40: Plant response rating, Barnyardgrass [1, 17] | Plant response rating, Blackgrass [2, 19] | Plant response rating, Blackgrass [2, 20] | Plant response rating, Lambsquarters [6, 18] | Plant response rating, Waterhemp [13, 20] | Waterhemp plant response rating [13, 22]
95: Plant response rating, Galium [5, 16] | Plant response rating, Galium [5, 17] | Plant response rating, Galium [5, 18] | Galium plant response rating [5, 22] | Morningglory plant response rating [7, 22] | Plant response rating, Pigweed [9, 17] | Plant response rating, Pigweed [9, 18]
30: Plant response rating, Foxtail, Giant [4, 17] | Plant response rating, Oilseed Rape [8, 20] | Plant response rating, Ragweed [10, 18]

COC(=O)Oc1cnn(C)c(=O)c1-c1c(C)sc2ccccc12 [Compound 97]
85: Plant response rating, Galium [5, 16]
0: Barnyardgrass plant response rating [1, 15] | Plant response rating, Barnyardgrass [1, 18] | Plant response rating, Barnyardgrass [1, 19] | Plant response rating, Barnyardgrass [1, 20] | Blackgrass plant response rating [2, 15] | Plant response rating, Blackgrass [2, 16] | Plant response rating, Blackgrass [2, 17] | Plant response rating, Blackgrass [2, 18] | Plant response rating, Blackgrass [2, 19] | Plant response rating, Blackgrass [2, 20] | Blackgrass plant response rating [2, 22] | Corn plant response rating (corn (Zea mays); [15]) | Plant response rating, Corn (corn (Zea mays); [16]) | Plant response rating, Corn (corn (Zea mays); [19]) | Plant response rating, Corn (corn (Zea mays); [20]) | Corn plant response rating (corn (Zea mays); [21]) | Corn plant response rating (corn (Zea mays); [22]) | Plant response rating, Crabgrass, Large [3, 18] | Plant response rating, Crabgrass, Large [3, 19] | Plant response rating, Crabgrass, Large [3, 20] | Plant response rating, Foxtail, Giant [4, 18] | Plant response rating, Galium [5, 18] | Plant response rating, Galium [5, 19] | Plant response rating, Galium [5, 20] | Plant response rating, Lambsquarters [6, 18] | Plant response rating, Lambsquarters [6, 19] | Plant response rating, Oilseed Rape [8, 16] | Plant response rating, Oilseed Rape [8, 18] | Plant response rating, Oilseed Rape [8, 19] | Plant response rating, Oilseed Rape [8, 20] | Oilseed Rape plant response rating [8, 21] | Oilseed Rape plant response rating [8, 22] | Plant response rating, Ragweed [10, 18] | Plant response rating, Ragweed [10, 19] | Plant response rating, Ragweed [10, 20] | Plant response rating, Velvetleaf [12, 18] | Plant response rating, Velvetleaf [12, 19] | Plant response rating, Waterhemp [13, 18] | Plant response rating, Wheat [14, 16] | Plant response rating, Wheat [14, 17] | Plant response rating, Wheat [14, 18] | Plant response rating, Wheat [14, 19] | Plant response rating, Wheat [14, 20] | Wheat plant response rating [14, 21] | Wheat plant response rating [14, 22]
60: Crabgrass, Large plant response rating [3, 21] | Plant response rating, Lambsquarters [6, 17] | Plant response rating, Pigweed [9, 16]
5: Barnyardgrass plant response rating [1, 22] | Blackgrass plant response rating [2, 21] | Plant response rating, Corn (corn (Zea mays); [17]) | Plant response rating, Corn (corn (Zea mays); [18]) | Crabgrass, Large plant response rating [3, 22] | Plant response rating, Foxtail, Giant [4, 16] | Plant response rating, Foxtail, Giant [4, 17] | Plant response rating, Foxtail, Giant [4, 19] | Plant response rating, Foxtail, Giant [4, 20] | Foxtail, Giant plant response rating [4, 22] | Plant response rating, Pigweed [9, 18] | Plant response rating, Ryegrass, Italian [11, 18] | Plant response rating, Ryegrass, Italian [11, 19] | Plant response rating, Waterhemp [13, 16] | Waterhemp plant response rating [13, 22]
40: Morningglory plant response rating [7, 22]
50: Plant response rating, Lambsquarters [6, 16] | Pigweed plant response rating [9, 22] | Plant response rating, Ryegrass, Italian [11, 16]
20: Plant response rating, Lambsquarters [6, 20] | Lambsquarters plant response rating [6, 22] | Plant response rating, Morningglory [7, 20] | Plant response rating, Velvetleaf [12, 20] | Velvetleaf plant response rating [12, 22] | Waterhemp plant response rating [13, 21]
80: Galium plant response rating [5, 22]
25: Plant response rating, Crabgrass, Large [3, 17] | Lambsquarters plant response rating [6, 21] | Plant response rating, Morningglory [7, 18] | Plant response rating, Ragweed [10, 16]
30: Plant response rating, Morningglory [7, 16] | Plant response rating, Morningglory [7, 17] | Plant response rating, Morningglory [7, 19] | Morningglory plant response rating [7, 21] | Plant response rating, Ryegrass, Italian [11, 20] | Ryegrass, Italian plant response rating [11, 21] | Ryegrass, Italian plant response rating [11, 22] | Plant response rating, Velvetleaf [12, 17] | Velvetleaf plant response rating [12, 21]
35: Plant response rating, Barnyardgrass [1, 17] | Barnyardgrass plant response rating [1, 21] | Plant response rating, Oilseed Rape [8, 17] | Plant response rating, Pigweed [9, 19] | Plant response rating, Ragweed [10, 17]
65: Plant response rating, Pigweed [9, 20] | Pigweed plant response rating [9, 21]
90: Plant response rating, Galium [5, 17] | Galium plant response rating [5, 21]
10: Plant response rating, Crabgrass, Large [3, 16] | Ragweed plant response rating [10, 21] | Ragweed plant response rating [10, 22] | Plant response rating, Velvetleaf [12, 16] | Plant response rating, Waterhemp [13, 17] | Plant response rating, Waterhemp [13, 19] | Plant response rating, Waterhemp [13, 20]
15: Plant response rating, Barnyardgrass [1, 16]
55: Foxtail, Giant plant response rating [4, 21] | Plant response rating, Ryegrass, Italian [11, 17]
75: Plant response rating, Pigweed [9, 17]
